Experimental data from US4471131A, “Novel silyl esters of N-phosphonomethylglycine” (Monsanto Company, priority 1983, dated 1984).

Tests used:
Experiment in all cases: post-emergence herbicidal activity, greenhouse
Type in all cases: in vivo
Morningglory = system: Morningglory
Summary of the method: (§1)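 Using pans of compacted topsoil, seeds were pressed in, covered, and grown on a greenhouse sand bench with subirrigation. Once two to three weeks old, plants were sprayed individually in a chamber; pans then returned to the greenhouse, and injury versus controls was noted around 2 and 4 WAT.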

Panicum Spp = conditions: Table III, formulated in anhydrous tetrahydrofuran
Summary of the method: as §1

Pennsylvania Smartweed = system: Pennsylvania Smartweed
Summary of the method: as §1

Quackgrass = conditions: Table II
Summary of the method: (§2)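 The readout is plant injury compared with untreated pans, taken at two time points, about two and four weeks after spraying. Plants had grown two to three weeks in greenhouse topsoil pans before atomizer treatment.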

Rice = conditions: Table III, formulated in anhydrous tetrahydrofuran
Summary of the method: as §1

Soybean = conditions: Table III, formulated in anhydrous tetrahydrofuran
Summary of the method: as §1

Sugar Beet = conditions: Table III, formulated in anhydrous tetrahydrofuran
Summary of the method: as §1

Velvetleaf = system: Velvetleaf
Summary of the method: as §1

Wild Buckwheat = conditions: Table III, formulated in anhydrous tetrahydrofuran
Summary of the method: as §1

Yellow Nutsedge = conditions: Table II
Summary of the method: as §2

[1] = Table II, 2 WAT, 5.6 kg/h, formulated in anhydrous tetrahydrofuran
[2] = Table II, 2 WAT, 11.2 kg/h, formulated in anhydrous tetrahydrofuran
[3] = Table II, 4 WAT, 11.2 kg/h, formulated in anhydrous tetrahydrofuran
[4] = Table III, 2 WAT, 1.1 kg/h, formulated in anhydrous tetrahydrofuran
[5] = Table III, 2 WAT, 5.6 kg/h, formulated in anhydrous tetrahydrofuran
[6] = Table III, 2 WAT, .28 kg/h, formulated in anhydrous tetrahydrofuran
[7] = Table III, 4 WAT, 5.6 kg/h, formulated in anhydrous tetrahydrofuran
[8] = 2 WAT, 5.6 kg/h, formulated in anhydrous tetrahydrofuran
[9] = 2 WAT, 11.2 kg/h, formulated in anhydrous tetrahydrofuran
[10] = 4 WAT, 11.2 kg/h, formulated in anhydrous tetrahydrofuran

CC(C)(C)[Si](OP(=O)(O)CNCC(=O)O)(c1ccccc1)c1ccccc1 [Ex. 5, Glycine, N-((([(1,1-Dimethylethyl)Diphenylsilyl]oxy)-Hydroxyphosphinyl)-Methyl)-,]
0 (0-24% inhibition): Plant Response Index (D) (Morningglory; [4]) | Plant Response Index (D) (Morningglory; [6]) | Plant Response Index (D) (Morningglory; [7]) | Plant Response Index (S) (Panicum Spp; 2 WAT, 1.1 kg/h) | Plant Response Index (S) (Panicum Spp; 2 WAT, 5.6 kg/h) | Plant Response Index (S) (Panicum Spp; 2 WAT, .28 kg/h) | Plant Response Index (S) (Panicum Spp; 4 WAT, 5.6 kg/h) | Plant Response Index (F) (Pennsylvania Smartweed; Table II, 2 WAT, 5.6 kg/h) | Plant Response Index (F) (Pennsylvania Smartweed; [1]) | Plant Response Index (F) (Pennsylvania Smartweed; [2]) | Plant Response Index (F) (Pennsylvania Smartweed; Table II, 4 WAT, 5.6 kg/h) | Plant Response Index (F) (Pennsylvania Smartweed; [3]) | Plant Response Index (F) (Pennsylvania Smartweed; [4]) | Plant Response Index (F) (Pennsylvania Smartweed; [6]) | Plant Response Index (H) (Quackgrass; 2 WAT, 5.6 kg/h) | Plant Response Index (H) (Quackgrass; [8]) | Plant Response Index (H) (Quackgrass; 2 WAT, 11.2 kg/h) | Plant Response Index (H) (Quackgrass; [9]) | Plant Response Index (H) (Quackgrass; 4 WAT, 5.6 kg/h) | Plant Response Index (H) (Quackgrass; [10]) | Plant Response Index (O) (Rice; 2 WAT, 1.1 kg/h) | Plant Response Index (O) (Rice; 2 WAT, 5.6 kg/h) | Plant Response Index (O) (Rice; 2 WAT, .28 kg/h) | Plant Response Index (O) (Rice; 4 WAT, 5.6 kg/h) | Plant Response Index (L) (Soybean; 4 WAT, 5.6 kg/h) | Plant Response Index (M) (Sugar Beet; 2 WAT, 1.1 kg/h) | Plant Response Index (M) (Sugar Beet; 2 WAT, 5.6 kg/h) | Plant Response Index (M) (Sugar Beet; 2 WAT, .28 kg/h) | Plant Response Index (M) (Sugar Beet; 4 WAT, 5.6 kg/h) | Plant Response Index (C) (Velvetleaf; Table II, 2 WAT, 5.6 kg/h) | Plant Response Index (C) (Velvetleaf; [1]) | Plant Response Index (C) (Velvetleaf; [2]) | Plant Response Index (C) (Velvetleaf; Table II, 4 WAT, 5.6 kg/h) | Plant Response Index (C) (Velvetleaf; Table II, 4 WAT, 11.2 kg/h) | Plant Response Index (C) (Velvetleaf; [3]) | Plant Response Index (C) (Velvetleaf; [4]) | Plant Response Index (C) (Velvetleaf; [5]) | Plant Response Index (C) (Velvetleaf; [6]) | Plant Response Index (C) (Velvetleaf; [7]) | Plant Response Index (Q) (Wild Buckwheat; 2 WAT, 1.1 kg/h) | Plant Response Index (Q) (Wild Buckwheat; 2 WAT, .28 kg/h) | Plant Response Index (Q) (Wild Buckwheat; 4 WAT, 5.6 kg/h) | Plant Response Index (G) (Yellow Nutsedge; 2 WAT, 5.6 kg/h) | Plant Response Index (G) (Yellow Nutsedge; [8]) | Plant Response Index (G) (Yellow Nutsedge; [9]) | Plant Response Index (G) (Yellow Nutsedge; [10])
2 (50-74% inhibition): Plant Response Index (F) (Pennsylvania Smartweed; Table II, 2 WAT, 11.2 kg/h) | Plant Response Index (F) (Pennsylvania Smartweed; Table II, 4 WAT, 11.2 kg/h) | Plant Response Index (G) (Yellow Nutsedge; 4 WAT, 11.2 kg/h)
1 (25-49% inhibition): Plant Response Index (D) (Morningglory; Table II, 2 WAT, 5.6 kg/h) | Plant Response Index (D) (Morningglory; [1]) | Plant Response Index (D) (Morningglory; Table II, 2 WAT, 11.2 kg/h) | Plant Response Index (D) (Morningglory; [2]) | Plant Response Index (D) (Morningglory; Table II, 4 WAT, 5.6 kg/h) | Plant Response Index (D) (Morningglory; Table II, 4 WAT, 11.2 kg/h) | Plant Response Index (D) (Morningglory; [3]) | Plant Response Index (D) (Morningglory; [5]) | Plant Response Index (F) (Pennsylvania Smartweed; [5]) | Plant Response Index (F) (Pennsylvania Smartweed; [7]) | Plant Response Index (H) (Quackgrass; 4 WAT, 11.2 kg/h) | Plant Response Index (L) (Soybean; 2 WAT, 1.1 kg/h) | Plant Response Index (L) (Soybean; 2 WAT, 5.6 kg/h) | Plant Response Index (L) (Soybean; 2 WAT, .28 kg/h) | Plant Response Index (C) (Velvetleaf; Table II, 2 WAT, 11.2 kg/h) | Plant Response Index (Q) (Wild Buckwheat; 2 WAT, 5.6 kg/h) | Plant Response Index (G) (Yellow Nutsedge; 2 WAT, 11.2 kg/h) | Plant Response Index (G) (Yellow Nutsedge; 4 WAT, 5.6 kg/h)
